Data set [1] concerns PEA1 cells. Kind of data set: MTT cytotoxicity assay, PEA1. Particulars: for IC50: Homo sapiens, PEA1, 72 h. Format: cell-based, human. The protocol:
(§1) All cell lines were obtained from the American Type Culture Collection (ATCC) and cultured in the specified medium supplemented with 10% fetal bovine serum, 100 IU/mL penicillin, and 100 μg/mL streptomycin at 37°C in a humidified 5% CO2/95% air incubator. Synthesis of new compounds is described in S1 File, and >95% purity of RA475, Up284 and its analogs were confirmed by NMR and MS. To assess drug cytotoxicity, cells were seeded at 2,500 cells/well (10,000 cells/well for MM lines) in 100 μL medium in 96-well plate as triplicates and after 24 h treated with compounds for a further 72 h. To assess cytotoxicity, the cells were incubated for 2 h at 37°C according to the manufacturer’s protocol with the Thiazolyl Blue Tetrazolium Bromide (20 μL/well of 5 mg/mL stock solution in water) (Sigma, M5655) and A570 measured using a Benchmark Plus microplate spectrophotometer (BIO-RAD). IC50 was estimated using Graphpad Prism 7 software.
Modifications of Up284 were sought to improve its drug-like properties without significant compromise of its activity in vivo, and several new compounds were synthesized (S1 File). Based on our prior studies of its pharmacophore, the central ring nitrogen was the most logical for addition of charged moieties, including RA475 and RA484. We also examined a change to either 3,4 spiro rings (RA477, RA479), or addition of 3-Fluoro substitutions (RA482) (S1 File). Our focus is developing iRPN13 to treat ovarian cancer resistant to standard of care drug regimens.
A wash-out experiment was performed to assess reversibility of the toxicity. PEA1 cells were treated with RA475 for 1 h before the medium was replaced with fresh culture medium, and the cells were then allowed to grow for another 71 hours (PEA1-WO). In parallel, PEA1 cells were incubated with RA475 continuously for 72 h. […] Possible reasons include slow uptake of RA475, reversible binding and neutralization by antioxidants in the medium.
(§2) To study the effect of RA475 in combination with approved therapeutics (DNA damaging agents or radiation) an MTT assay was performed using various concentrations of both drugs. Briefly PEA1 and OVCAR3 cells were each treated with drug combination (RA475 plus cisplatin) for 72 h in a checker board analysis and cell viability was measured using MTT assay. The data were analyzed and plotted using the Synergy Finder web application.

Data set [2] concerns OVCAR3 cells. The data set can be described thus: MTT cytotoxicity assay, OVCAR3. It counts as cell-based, human. Particulars: for IC50: Homo sapiens, OVCAR-3, OVCAR3, 72 h. The protocol: as §1, §2
Data set [3] has as its system A549. Kind of data set: MTT cytotoxicity assay, A549. Format: cell-based. Particulars: Homo sapiens, A549, 72 h. The protocol: as §1
(Formazan colour is commonly taken as a measure of viable cells.)

Data set [4] relates to BT549. The data set can be described thus: MTT cytotoxicity assay, BT549. Format: cell-based. Particulars: Homo sapiens, BT-549, BT549, 72 h. The protocol:
as §1

Data set [5] relates to HCT116. The data set can be described thus: MTT cytotoxicity assay, HCT116. Format: cell-based. Particulars: Homo sapiens, HCT-116, HCT116, 72 h. The protocol:
as §1

In data set [6] the test system is HFF. The data set can be described thus: MTT cytotoxicity assay, HFF. Format: cell-based. Particulars: Homo sapiens, HFF (normal cells), 72 h. The protocol:
as §1

Data set [7] relates to Mouse keratinocytes. The data set can be described thus: MTT cytotoxicity assay, mouse keratinocytes. It counts as cell-based. Particulars: Keratinocyte, Mouse keratinocytes (normal cells), 72 h. The protocol:
as §1

In data set [8] the test system is high molecular weight polyubiquitinated proteins in SKOV3 cells. The data set can be described thus: Anti-ubiquitin immunoblot, SKOV3. Format: cell-based. Particulars: Up284 and RA475 0.5 and 1 μM, RA190 1 μM. From the text: Cell lysate prepared in MPER (Pierce) from each sample was normalized by total protein concentration using the bicinchoninic acid assay and bovine serum albumin standards. Normalized samples were subjected to SDS-PAGE, transferred to PVDF membranes and analyzed by Western blot using antibodies specific to ubiquitin (P4D1, sc-8017, Santa Cruz), PARP (#9542, […]), actin (#66009, Protein Tech Group), Tubulin(#66031, Protein Tech Group), ADRM1/RPN13 (D9Z1U, #12019, Cell Signaling), USP14 (Cell Signal, # 8159), Annexin V (#559763, BD Pharmingen), and for secondary antibodies we utilized either horseradish peroxidase (HRP)-linked anti-mouse IgG or anti-rabbit IgG (GE Healthcare UK Ltd), HRP-linked streptavidin (N100, Thermo Fisher) at the recommended dilution (1:5000).
Accumulation of high molecular weight polyubiquitinated proteins (polyUb) is a classical phenomenon of proteasome function inhibition due to the stabilization of its substrate.
Fig 3 Impact of RA475 on proteasome function. […] Actin was used as loading control. […] C) 4T1 and HCC1806 cells stably expressing 4UbFL were treated with compounds at indicated doses for 4 h and imaged by IVIS200 after the addition of luciferin substrate (50 μL, 7mg/mL in PBS). […] After a 4 h incubation, the cells were lysed and the luciferase activity in each cell lysate was determined with a luciferase assay kit (Promega) according to the manufacturer’s instructions. Bioluminescence was measured by using a luminometer (Glomax Multidetection system, Promega) E) A patch was shaved of hair on one leg of CD-1 mice, and 10 μg 4UbFL plasmid in 20 μL of PBS was injected into the quadriceps femoralis muscle followed immediately by injection of the 2 Needle Array to 5 mm depth encompassing the injection site and square wave electroporation (ElectroSquarePorator 833, BTX-2 Needle array 5mm gap, Harvard apparatus) delivered as eight pulses at 106V for 20 ms with 200 ms intervals. […] Equally sized areas were analyzed using Living Image 2.20 software. […]
On the technique in general: Immunoblotting shows a protein as a band on a membrane.

Here are results for two compounds from article PMC11239005, “Preclinical studies of RA475, a guanidine-substituted spirocyclic candidate RPN13/ADRM1 inhibitor for treatment of ovarian cancer” (PLOS ONE, 2024).

The IC50 is the concentration needed to halve the response being measured.

On to `Cl.Cl.N#Cc1ccc(/C=C2/C(=O)/C(=C/c3ccc(C#N)cc3)C23CCN(C(=N)N)CC3)cc1` [RA475, 1,3-bis((E)-4-cyanobenzylidene)-2-oxo-7-azaspiro[3.5]nonane-7-carboximidamide dihydrochloride], for which the IC50 in data set [1] is 406 nM; in data set [2], 190 nM; in data set [3], 219 nM; in data set [4] it was 229 nM; in data set [5] it was 430 nM; in data set [6], > 2500 nM. In data set [7], the IC50 was > 2500 nM. Also, in data set [1] (PEA1, RA475 1 h then fresh medium 71 h vs continuous 72 h), the “cytotoxic effect after wash-out” value was “reduced its cytotoxic effect”. In addition, the “synergy with cisplatin for cytotoxicity” value in data set [1] (PEA1, checker board, 72 h, Synergy Finder) was “mild synergy”; in data set [2] (OVCAR3, checker board, 72 h, Synergy Finder), “mild synergy”. Also, in data set [8], the “accumulation of high molecular weight polyubiquitinated proteins” value is reported as “robust accumulation of polyUb in dose dependent manner”.
As to `N#Cc1ccc(/C=C2/C(=O)/C(=C/c3ccc(C#N)cc3)C23CCNCC3)cc1` [Up284, reference compound], the IC50 in data set [1] was 219 nM; in data set [2], 50 nM; in data set [3], 90 nM; in data set [4], 70 nM; in data set [5] it was 110 nM; in data set [6], > 2500 nM. In addition, the half-maximal inhibitory concentration (IC50) in data set [7] was > 2500 nM. For the same compound, in data set [8], the “accumulation of high molecular weight polyubiquitinated proteins” value is “robust accumulation of polyUb”.
